We go through six compounds from PMC3961306, “Comparison of the Cancer Gene Targeting and Biochemical Selectivities of All Targeted Kinase Inhibitors Approved for Clinical Use” (PLoS ONE, 2014).

Common to all, as to assay: Kinase profiling in a biochemical assay panel (mobility shift assays and ELISA), %-inhibition at 1 μM; selectivity entropy
For orientation: ELISA stands for enzyme-linked immunosorbent assay.

The target of assay [1] is panel of more than 300 wild-type and mutant kinases (313 kinase panel) (Homo sapiens, UniProt Q96SB4). Conditions: kinase SRPK1; 1 μM.
Assay [2] concerns the target T1, panel of more than 300 wild-type and mutant kinases (313 kinase panel) (Homo sapiens, UniProt P43403).
T1 sequence (P43403 1-619): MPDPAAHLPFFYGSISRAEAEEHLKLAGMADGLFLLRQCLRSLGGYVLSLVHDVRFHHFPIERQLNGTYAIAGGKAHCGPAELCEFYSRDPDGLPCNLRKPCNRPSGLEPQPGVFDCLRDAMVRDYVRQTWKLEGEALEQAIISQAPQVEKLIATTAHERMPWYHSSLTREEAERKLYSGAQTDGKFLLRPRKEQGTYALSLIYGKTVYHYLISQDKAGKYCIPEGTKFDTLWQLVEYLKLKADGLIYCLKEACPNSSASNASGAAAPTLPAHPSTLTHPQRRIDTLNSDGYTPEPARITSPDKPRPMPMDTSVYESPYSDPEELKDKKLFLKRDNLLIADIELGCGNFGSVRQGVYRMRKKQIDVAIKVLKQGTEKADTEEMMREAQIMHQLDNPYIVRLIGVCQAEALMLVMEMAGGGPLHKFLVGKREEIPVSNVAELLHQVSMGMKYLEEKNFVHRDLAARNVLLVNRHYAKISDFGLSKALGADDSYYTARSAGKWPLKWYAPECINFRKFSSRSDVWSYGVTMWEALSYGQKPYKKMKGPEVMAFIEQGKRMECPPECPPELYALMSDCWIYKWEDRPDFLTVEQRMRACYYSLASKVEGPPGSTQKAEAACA

Assay [3] has as its target panel of more than 300 wild-type and mutant kinases (313 kinase panel) (Homo sapiens, UniProt Q13555). To be noted: kinase CaMK2γ; 1 μM compound.
The target in assay [4] is panel of more than 300 wild-type and mutant kinases (313 kinase panel) (Homo sapiens, UniProt P05771). To be noted: kinase PKCβ1; 1 μM.
Assay [5] addresses panel of more than 300 wild-type and mutant kinases (313 kinase panel) (Homo sapiens, UniProt Q16816). Conditions: kinase PHKG1; 1 μM.
For assay [6], the target named is panel of more than 300 wild-type and mutant kinases (313 kinase panel) (Homo sapiens, UniProt P50750). To be noted: kinase CDK9/CycT1; 1 μM compound.
In assay [7] the target is panel of more than 300 wild-type and mutant kinases (313 kinase panel) (Homo sapiens, UniProt Q8IY84).
For assay [8], the target named is panel of more than 300 wild-type and mutant kinases (313 kinase panel) (Homo sapiens, UniProt Q04759). Conditions: kinase PKCθ; 1 μM.
The target of assay [9] is panel of more than 300 wild-type and mutant kinases (313 kinase panel) (Homo sapiens, UniProt P04049).
Assay [10] deals with panel of more than 300 wild-type and mutant kinases (313 kinase panel) (Homo sapiens, UniProt Q9UQM7). To be noted: kinase CaMK2α; 1 μM compound.
For assay [11], the target named is panel of more than 300 wild-type and mutant kinases (313 kinase panel) (Homo sapiens, UniProt Q9P0L2). Conditions: kinase MARK1; compound at 1 μM.
Chain of panel of more than 300 wild-type and mutant kinases (313 kinase panel) (Homo sapiens, UniProt Q9P0L2) (Q9P0L2 whole entry, change not shown): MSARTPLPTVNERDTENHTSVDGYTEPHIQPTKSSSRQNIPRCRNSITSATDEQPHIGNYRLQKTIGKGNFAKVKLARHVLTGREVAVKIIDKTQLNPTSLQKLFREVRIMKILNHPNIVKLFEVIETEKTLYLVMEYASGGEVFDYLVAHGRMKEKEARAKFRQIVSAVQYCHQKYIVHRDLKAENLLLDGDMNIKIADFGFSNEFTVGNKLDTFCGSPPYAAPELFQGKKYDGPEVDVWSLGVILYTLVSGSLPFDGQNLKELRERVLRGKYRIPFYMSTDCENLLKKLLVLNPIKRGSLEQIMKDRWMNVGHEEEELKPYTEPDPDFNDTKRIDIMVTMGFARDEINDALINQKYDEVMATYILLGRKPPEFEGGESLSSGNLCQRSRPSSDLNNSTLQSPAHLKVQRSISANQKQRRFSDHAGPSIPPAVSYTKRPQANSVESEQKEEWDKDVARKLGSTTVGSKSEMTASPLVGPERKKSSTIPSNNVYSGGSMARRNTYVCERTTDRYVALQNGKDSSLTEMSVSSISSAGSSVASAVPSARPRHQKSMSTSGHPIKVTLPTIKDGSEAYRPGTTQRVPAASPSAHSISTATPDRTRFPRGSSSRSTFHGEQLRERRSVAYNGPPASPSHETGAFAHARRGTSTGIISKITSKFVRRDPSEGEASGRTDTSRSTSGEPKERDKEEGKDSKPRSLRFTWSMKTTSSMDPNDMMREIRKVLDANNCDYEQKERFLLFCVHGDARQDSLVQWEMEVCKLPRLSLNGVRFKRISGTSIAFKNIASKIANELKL

Chain of panel of more than 300 wild-type and mutant kinases (313 kinase panel) (Homo sapiens, UniProt P04049) (P04049 whole entry, change not shown): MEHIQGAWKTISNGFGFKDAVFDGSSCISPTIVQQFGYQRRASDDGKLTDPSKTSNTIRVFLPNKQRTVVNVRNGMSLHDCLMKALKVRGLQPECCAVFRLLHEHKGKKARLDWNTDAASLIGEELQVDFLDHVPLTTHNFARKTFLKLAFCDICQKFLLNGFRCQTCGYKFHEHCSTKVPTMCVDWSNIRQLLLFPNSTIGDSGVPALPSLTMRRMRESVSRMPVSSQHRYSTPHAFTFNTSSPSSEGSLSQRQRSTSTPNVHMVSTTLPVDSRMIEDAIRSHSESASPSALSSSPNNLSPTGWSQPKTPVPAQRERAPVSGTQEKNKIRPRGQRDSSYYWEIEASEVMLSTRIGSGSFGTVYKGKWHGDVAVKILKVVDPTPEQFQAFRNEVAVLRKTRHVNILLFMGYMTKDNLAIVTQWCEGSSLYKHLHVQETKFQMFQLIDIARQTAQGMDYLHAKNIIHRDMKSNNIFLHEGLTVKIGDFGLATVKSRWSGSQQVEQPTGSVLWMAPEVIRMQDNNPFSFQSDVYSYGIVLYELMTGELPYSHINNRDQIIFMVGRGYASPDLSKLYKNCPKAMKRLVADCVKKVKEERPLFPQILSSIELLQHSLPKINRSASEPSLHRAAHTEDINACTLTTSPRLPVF
Chain of panel of more than 300 wild-type and mutant kinases (313 kinase panel) (Homo sapiens, UniProt Q96SB4) (Q96SB4 whole entry, change not shown): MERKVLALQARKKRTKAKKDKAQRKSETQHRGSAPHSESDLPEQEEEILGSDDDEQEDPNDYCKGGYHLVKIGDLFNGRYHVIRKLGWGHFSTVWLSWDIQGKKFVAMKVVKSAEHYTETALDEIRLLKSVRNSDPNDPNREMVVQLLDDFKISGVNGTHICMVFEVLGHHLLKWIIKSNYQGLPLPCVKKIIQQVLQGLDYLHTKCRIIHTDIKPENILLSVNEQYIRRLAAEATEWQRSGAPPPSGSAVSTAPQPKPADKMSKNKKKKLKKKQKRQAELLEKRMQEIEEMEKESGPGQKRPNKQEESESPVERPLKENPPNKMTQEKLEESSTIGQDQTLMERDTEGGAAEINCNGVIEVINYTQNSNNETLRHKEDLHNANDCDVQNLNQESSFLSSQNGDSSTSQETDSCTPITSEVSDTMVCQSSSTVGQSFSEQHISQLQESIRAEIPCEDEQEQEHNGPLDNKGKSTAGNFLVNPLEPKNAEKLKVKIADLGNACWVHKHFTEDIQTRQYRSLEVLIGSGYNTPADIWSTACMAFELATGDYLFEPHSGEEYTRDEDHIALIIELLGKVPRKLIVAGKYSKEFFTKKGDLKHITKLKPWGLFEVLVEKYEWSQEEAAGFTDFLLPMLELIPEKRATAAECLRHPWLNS
Chain of panel of more than 300 wild-type and mutant kinases (313 kinase panel) (Homo sapiens, UniProt Q16816) (Q16816 whole entry, change not shown): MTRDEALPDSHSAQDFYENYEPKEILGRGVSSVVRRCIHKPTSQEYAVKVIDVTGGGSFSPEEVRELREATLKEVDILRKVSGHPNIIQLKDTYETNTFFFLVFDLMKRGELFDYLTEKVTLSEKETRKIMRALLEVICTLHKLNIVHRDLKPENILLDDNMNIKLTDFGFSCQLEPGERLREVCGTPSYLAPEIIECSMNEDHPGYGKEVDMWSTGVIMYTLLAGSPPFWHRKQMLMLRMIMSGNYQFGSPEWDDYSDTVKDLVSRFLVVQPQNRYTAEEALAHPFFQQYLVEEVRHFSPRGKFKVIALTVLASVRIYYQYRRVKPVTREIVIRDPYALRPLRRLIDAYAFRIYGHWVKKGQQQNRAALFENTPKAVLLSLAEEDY
Chain of panel of more than 300 wild-type and mutant kinases (313 kinase panel) (Homo sapiens, UniProt Q04759) (Q04759 whole entry, change not shown): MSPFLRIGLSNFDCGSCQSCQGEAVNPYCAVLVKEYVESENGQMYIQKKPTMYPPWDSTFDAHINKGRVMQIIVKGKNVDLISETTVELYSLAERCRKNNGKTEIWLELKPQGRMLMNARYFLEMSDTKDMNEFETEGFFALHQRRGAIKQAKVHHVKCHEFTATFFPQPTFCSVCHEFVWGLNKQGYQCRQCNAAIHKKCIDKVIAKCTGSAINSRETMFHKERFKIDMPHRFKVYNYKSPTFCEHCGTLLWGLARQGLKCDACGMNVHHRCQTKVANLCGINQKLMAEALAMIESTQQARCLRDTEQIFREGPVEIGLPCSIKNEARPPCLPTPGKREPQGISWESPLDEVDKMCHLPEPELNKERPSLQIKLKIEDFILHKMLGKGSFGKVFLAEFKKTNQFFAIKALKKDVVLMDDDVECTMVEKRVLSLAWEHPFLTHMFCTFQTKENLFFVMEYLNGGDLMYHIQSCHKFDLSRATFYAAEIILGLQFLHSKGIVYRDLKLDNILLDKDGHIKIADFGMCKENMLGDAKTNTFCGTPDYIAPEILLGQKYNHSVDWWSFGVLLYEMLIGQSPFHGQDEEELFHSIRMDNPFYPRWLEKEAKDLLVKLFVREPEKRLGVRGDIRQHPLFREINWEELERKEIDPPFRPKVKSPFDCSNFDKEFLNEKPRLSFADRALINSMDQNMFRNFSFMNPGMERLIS
Chain of panel of more than 300 wild-type and mutant kinases (313 kinase panel) (Homo sapiens, UniProt Q9UQM7) (Q9UQM7 whole entry, change not shown): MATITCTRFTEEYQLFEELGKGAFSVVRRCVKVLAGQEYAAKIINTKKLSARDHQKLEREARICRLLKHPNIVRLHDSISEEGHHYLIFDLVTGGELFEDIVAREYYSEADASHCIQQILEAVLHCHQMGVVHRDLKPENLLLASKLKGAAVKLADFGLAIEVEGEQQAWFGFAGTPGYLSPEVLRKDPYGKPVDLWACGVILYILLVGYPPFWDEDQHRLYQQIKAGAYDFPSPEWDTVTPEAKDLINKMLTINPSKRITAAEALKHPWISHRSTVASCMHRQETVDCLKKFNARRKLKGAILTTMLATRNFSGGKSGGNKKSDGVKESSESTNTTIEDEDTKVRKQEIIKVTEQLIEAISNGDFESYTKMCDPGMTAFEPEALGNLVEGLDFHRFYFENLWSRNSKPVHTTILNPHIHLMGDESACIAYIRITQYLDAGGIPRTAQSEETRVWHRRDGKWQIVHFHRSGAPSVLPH

Consider `C[C@@H](Oc1cc(-c2cnn(C3CCNCC3)c2)cnc1N)c1c(Cl)ccc(F)c1Cl` [crizotinib], for which the “%-inhibition of SRPK1” value in assay [1] is 4.55%. Moreover, the “%-inhibition of ZAP70” value in assay [2] (kinase ZAP70, compound at 1 μM) was 21%. In addition, the “%-inhibition, CaMK2γ” value in assay [3] is reported as -10%. Moreover, the “%-inhibition of PKCβ1” value in assay [4] is reported as -3%. The “%-inhibition of PHKG1” value in assay [5] was 2.74%. In addition, the “%-inhibition, CDK9/CycT1” value in assay [6] is 5%. Moreover, the “%-inhibition of MGC42105” value in [7] (kinase MGC42105, 1 μM) is -6%. Moreover, the “%-inhibition of PKCθ” value in assay [8] is recorded as -3%. Moreover, the “%-inhibition of RAF1” value in assay [9] (kinase RAF1, 1 μM) is 11%. The “%-inhibition, CaMK2α” value in assay [10] is listed as -2.77%. Further, in assay [11], the “%-inhibition of MARK1” value is recorded as 27%.

As to `CCCS(=O)(=O)Nc1ccc(F)c(C(=O)c2c[nH]c3ncc(-c4ccc(Cl)cc4)cc23)c1F` [vemurafenib], in assay [1], the “%-inhibition of SRPK1” value worked out at 2%. The “%-inhibition of ZAP70” value in [2] (kinase ZAP70, compound at 1 μM) is reported as 6%. Moreover, in assay [3], the “%-inhibition, CaMK2γ” value is given as -10%. The “%-inhibition of PKCβ1” value in assay [4] is reported as -3.81%. Further, the “%-inhibition of PHKG1” value in [5] is listed as -0.913%. Besides, in [6], the “%-inhibition, CDK9/CycT1” value stood at 1.33%. Besides, the “%-inhibition of MGC42105” value in assay [7] (kinase MGC42105, 1 μM) was -8%. Further, the “%-inhibition of PKCθ” value in assay [8] is on record as -3%. Further, the “%-inhibition of RAF1” value in [9] (kinase RAF1, 1 μM) was 96%. Also, the “%-inhibition, CaMK2α” value in assay [10] is -4.25%. Also, the “%-inhibition of MARK1” value in assay [11] is listed as -9%.

As to `CNC(=O)c1cc(Oc2ccc(NC(=O)Nc3ccc(Cl)c(C(F)(F)F)c3)c(F)c2)ccn1` [regorafenib], in assay [1], the “%-inhibition of SRPK1” value was determined as 27%. Besides, in assay [2] (kinase ZAP70, compound at 1 μM), the “%-inhibition of ZAP70” value was -0.475%. The “%-inhibition, CaMK2γ” value in assay [3] is -13%. For the same compound, the “%-inhibition of PKCβ1” value in assay [4] is -7%. In addition, the “%-inhibition of PHKG1” value in assay [5] came out at 8%. Besides, the “%-inhibition, CDK9/CycT1” value in [6] came to 1%. In addition, the “%-inhibition of MGC42105” value in assay [7] (kinase MGC42105, 1 μM) is listed as -22%. Also, the “%-inhibition of PKCθ” value in assay [8] is reported as -7.47%. Moreover, the “%-inhibition of RAF1” value in [9] (kinase RAF1, 1 μM) came out at 96%. For the same compound, the “%-inhibition, CaMK2α” value in [10] is recorded as -1.57%. Besides, the “%-inhibition of MARK1” value in [11] is -24%.

As for `Cc1ccc(Nc2nccc(N(C)c3ccc4c(C)n(C)nc4c3)n2)cc1S(N)(=O)=O` [pazopanib], the “%-inhibition of SRPK1” value in assay [1] was found to be 8%. In assay [2] (kinase ZAP70, compound at 1 μM), the “%-inhibition of ZAP70” value is given as 39%. In addition, the “%-inhibition, CaMK2γ” value in assay [3] stood at 0.188%. Besides, the “%-inhibition of PKCβ1” value in assay [4] is -4.7%. Further, in [5], the “%-inhibition of PHKG1” value is on record as 1.52%. Also, the “%-inhibition, CDK9/CycT1” value in [6] amounted to 31%. The “%-inhibition of MGC42105” value in assay [7] (kinase MGC42105, 1 μM) is recorded as 0.318%. Besides, in assay [8], the “%-inhibition of PKCθ” value is given as -3.47%. In [9] (kinase RAF1, 1 μM), the “%-inhibition of RAF1” value came out at 85%. Further, in assay [10], the “%-inhibition, CaMK2α” value is on record as -0.797%. Moreover, the “%-inhibition of MARK1” value in assay [11] was found to be 2.19%.

For the compound `CO[C@H]1C[C@@H]2CC[C@@H](C)[C@@](O)(O2)C(=O)C(=O)N2CCCC[C@H]2C(=O)O[C@H]([C@H](C)C[C@@H]2CC[C@@H](OC(=O)C(C)(CO)CO)[C@H](OC)C2)CC(=O)[C@H](C)/C=C(\C)[C@@H](O)[C@@H](OC)C(=O)[C@H](C)C[C@H](C)/C=C/C=C/C=C/1C` [temsirolimus], the “%-inhibition of SRPK1” value in assay [1] is 6%. The “%-inhibition of ZAP70” value in assay [2] (kinase ZAP70, compound at 1 μM) is -2.76%. For the same compound, in [3], the “%-inhibition, CaMK2γ” value was -14%. The “%-inhibition of PKCβ1” value in assay [4] was -2%. For the same compound, the “%-inhibition of PHKG1” value in assay [5] is listed as 1.57%. Moreover, in [6], the “%-inhibition, CDK9/CycT1” value is on record as -3.29%. For the same compound, the “%-inhibition of MGC42105” value in assay [7] (kinase MGC42105, 1 μM) is reported as -11%. In addition, the “%-inhibition of PKCθ” value in assay [8] is -2.62%. For the same compound, in assay [9] (kinase RAF1, 1 μM), the “%-inhibition of RAF1” value is -0.648%. Further, in assay [10], the “%-inhibition, CaMK2α” value is on record as -7%. Further, in assay [11], the “%-inhibition of MARK1” value is on record as -5%.

For the compound `Cc1cn(-c2cc(NC(=O)c3ccc(C)c(Nc4nccc(-c5cccnc5)n4)c3)cc(C(F)(F)F)c2)cn1` [nilotinib], in assay [1], the “%-inhibition of SRPK1” value amounted to 3%. The “%-inhibition of ZAP70” value in assay [2] (1 µM) was determined as 2.52%. For the same compound, the “%-inhibition, CaMK2γ” value in assay [3] was -2.76%. In assay [4], the “%-inhibition of PKCβ1” value turned out to be 3.41%. Also, the “%-inhibition of PHKG1” value in assay [5] is -8%. For the same compound, the “%-inhibition, CDK9/CycT1” value in assay [6] amounted to 9%. Further, the “%-inhibition of MGC42105” value in assay [7] (1 µM) is -48%. Further, the “%-inhibition of PKCθ” value in assay [8] is listed as -3.49%. The “%-inhibition of RAF1” value in [9] (1 µM) was found to be 58%. In addition, the “%-inhibition, CaMK2α” value in assay [10] is recorded as -5%. The “%-inhibition of MARK1” value in assay [11] is recorded as 12%.
